In ChEMBL document CHEMBL5634100, “Novel spiro[pyrrolidine-2,3'-quinoline]-2'-one derivatives containing piperazine fragment as potential chitin synthase inhibitors and antifungal agents: Design, synthesis and biological evaluation” (Eur J Med Chem, 2023):
≈ marks a conversion by molar mass, not a printed value. Calls of active or inactive are those of the source. The rule behind the calls is not given here.

What was measured:
[1] = test system: Candida tropicalis; test: Inhibition of Candida tropicalis ATCC 750 chitin synthase using UDP-GlcNAc as substrate at 300 ug/ml by TMB based microplate analyzer relative to control; settings: dose 300.0 µg/ml
[2] = test system: Cryptococcus neoformans; test: Antimicrobial activity against Fluconazole-resistant Cryptococcus neoformans ATCC 32719R incubated for 24 hrs by two fold serial dilution method; type: functional
[3] = test system: Candida albicans; test: Antimicrobial activity against Candida albicans ATCC 76615 assessed as inhibition of cell wall synthesis in presence of sorbitol; type: functional
[4] = test system: Aspergillus flavus; test: Antimicrobial activity against Fluconazole-resistant Aspergillus flavus ATCC 16870R incubated for 24 hrs by two fold serial dilution method; type: functional
[5] = test system: Cryptococcus neoformans; test: Antimicrobial activity against Cryptococcus neoformans ATCC 32719 incubated for 24 hrs by two fold serial dilution method; type: functional
[6] = test system: Cryptococcus neoformans; test: Antimicrobial activity against Cryptococcus neoformans ATCC 32719 assessed as inhibition of cell wall synthesis in presence of sorbitol; type: functional
[7] = test system: Candida tropicalis; test: Non-competitive inhibition of Candida tropicalis ATCC 750 chitin synthase using UDP-GlcNAc as substrate assessed as decrease in Vmax with constant Km by Lineweaver-Burk plot analysis
[8] = test system: Aspergillus fumigatus; test: Antimicrobial activity against Aspergillus fumigatus GIMCC 3.19 incubated for 24 hrs by two fold serial dilution method; type: functional
[9] = test system: Aspergillus flavus; test: Antimicrobial activity against Aspergillus flavus ATCC 16870 assessed as inhibition of cell wall synthesis in presence of sorbitol; type: functional
[10] = test system: Aspergillus fumigatus; test: Antimicrobial activity against Fluconazole-resistant Aspergillus fumigatus GIMCC 3.19R incubated for 24 hrs by two fold serial dilution method; type: functional
[11] = Binding affinity to Candida tropicalis ATCC 750 chitin synthase assessed as inhibition constant by Lineweaver-Burk plot analysis
[12] = test system: Candida albicans; test: Antimicrobial activity against micafungin-resistant Candida albicans ATCC 76615R incubated for 24 hrs by two fold serial dilution method; type: functional
[13] = test system: Aspergillus fumigatus; test: Antimicrobial activity against Aspergillus fumigatus GIMCC 3.19 assessed as inhibition of cell wall synthesis in presence of sorbitol; type: functional
[14] = test system: Candida albicans; test: Antimicrobial activity against fluconazole-resistant Candida albicans ATCC 76615R incubated for 24 hrs by two fold serial dilution method; type: functional
[15] = test system: Candida albicans; test: Antimicrobial activity against Candida albicans ATCC 76615 incubated for 24 hrs by two fold serial dilution method; type: functional
[16] = Inhibition of Candida tropicalis ATCC 750 chitin synthase using UDP-GlcNAc as substrate by TMB based microplate analyzer
[17] = test system: Aspergillus flavus; test: Antimicrobial activity against Aspergillus flavus ATCC 16870 incubated for 24 hrs by two fold serial dilution method; type: functional

| Compound | inhibition [1] [%] | MIC [2] [µg/mL] | MIC [3] [µg/mL] | MIC [4] [µg/mL] | MIC [5] [µg/mL] | MIC [6] [µg/mL] | inhibition [7] | MIC [8] [µg/mL] | MIC [9] [µg/mL] | MIC [10] [µg/mL] | Ki [11] [µM] | MIC [12] [µg/mL] | MIC [13] [µg/mL] | MIC [14] [µg/mL] | MIC [15] [µg/mL] | IC50 [16] [µM] | MIC [17] [µg/mL] |
| --- | --- | --- | --- | --- | --- | --- | --- | --- | --- | --- | --- | --- | --- | --- | --- | --- | --- |
| O=C(c1cccc([N+](=O)[O-])c1)N1CCN(CC(=O)N2CCCC23Cc2ccccc2NC3=O)CC1 (stereo not drawn) | 81.2 | 64 (≈ 134 µM) | 128 | 32 (≈ 67 µM) | 32 (≈ 67 µM) | 256 | Active | 8 (≈ 16.8 µM) | 128 | 64 (≈ 134 µM) | 140 | 64 (≈ 134 µM) | 64 | 64 (≈ 134 µM) | 4 (≈ 8.38 µM) | 120 | 4 (≈ 8.38 µM) |
| Cc1ccc(C(=O)N2CCN(CC(=O)N3CCCC34Cc3ccccc3NC4=O)CC2)cc1 (stereo not drawn) | 52.3 |  |  |  | 64 (≈ 143 µM) |  |  | 32 (≈ 71.7 µM) |  |  |  |  |  |  | 16 (≈ 35.8 µM) |  | 16 (≈ 35.8 µM) |
| O=C(c1cccc(Br)c1)N1CCN(CC(=O)N2CCCC23Cc2ccccc2NC3=O)CC1 (stereo not drawn) | 58.8 |  |  |  | 32 (≈ 62.6 µM) |  |  | 16 (≈ 31.3 µM) |  |  |  |  |  |  | 8 (≈ 15.6 µM) | 320 | 16 (≈ 31.3 µM) |
| COc1cccc(C(=O)N2CCN(CC(=O)N3CCCC34Cc3ccccc3NC4=O)CC2)c1 (stereo not drawn) | 50.7 |  |  |  | 128 (≈ 277 µM) |  |  | 32 (≈ 69.2 µM) |  |  |  |  |  |  | 32 (≈ 69.2 µM) |  | 64 (≈ 138 µM) |
| O=C(c1ccccc1Cl)N1CCN(CC(=O)N2CCCC23Cc2ccccc2NC3=O)CC1 (stereo not drawn) | 61.4 |  |  |  | 32 (≈ 68.5 µM) |  |  | 16 (≈ 34.3 µM) |  |  |  |  |  |  | 16 (≈ 34.3 µM) |  | 16 (≈ 34.3 µM) |
| O=C(c1cc(Cl)ccc1Cl)N1CCN(CC(=O)N2CCCC23Cc2ccccc2NC3=O)CC1 (stereo not drawn) | 67.6 | 64 (≈ 128 µM) | 64 | 64 (≈ 128 µM) | 8 (≈ 16 µM) | 128 |  | 8 (≈ 16 µM) | 32 | 64 (≈ 128 µM) |  | 32 (≈ 63.8 µM) | 64 | 64 (≈ 128 µM) | 4 (≈ 7.98 µM) | 180 | 8 (≈ 16 µM) |
| O=C(c1ccccc1)N1CCN(CC(=O)N2CCCC23Cc2ccccc2NC3=O)CC1 (stereo not drawn) | 47 |  |  |  | 64 (≈ 148 µM) |  |  | 32 (≈ 74 µM) |  |  |  |  |  |  | 16 (≈ 37 µM) |  | 32 (≈ 74 µM) |
| O=C(c1ccc(F)cc1)N1CCN(CC(=O)N2CCCC23Cc2ccccc2NC3=O)CC1 (stereo not drawn) | 76.7 | 64 (≈ 142 µM) | 64 | 64 (≈ 142 µM) | 16 (≈ 35.5 µM) | 128 |  | 8 (≈ 17.8 µM) | 64 | 64 (≈ 142 µM) |  | 64 (≈ 142 µM) | 256 | 64 (≈ 142 µM) | 4 (≈ 8.88 µM) | 130 | 8 (≈ 17.8 µM) |
